Data as given in patent US8232402B2, “Quinolinone farnesyl transferase inhibitors for the treatment of synucleinopathies and other indications” (Link Medicine Corporation, priority 2008, dated 2012).
Entries after “also recorded” stand apart in the source; their conditions may differ.

Tests used:
[1] = tested on: α-synuclein in COS-7 cells; assay: α-synuclein degradation assay in COS-7 cells; format: cell-based
Source text: Plasmids: C220S cDNA was generated by PCR site-specific mutagenesis. For the PCR, the 5′ primer is uchforw SEQ ID NO: 1 ([…]), and 3′ primer is uchc220s SEQ ID NO:2 (CTAAGA […]). Wt UCH-L1 served as the template. The PCR fragment was inserted into pcDNA vector. For S 18YC220S mutant, S 18Y UCH-L1 served as the template in PCR. For the FLAG tagged UCH-L1, the 5′ primer is FLAGuchforw SEQ ID NO: 3 ([…] CGATGGAG), and the 3′ primer is uchrev SEQ ID NO: 4 ([…]). Wt UCH-L1 or C220S served as the template. PCR fragment was purified and inserted into pcDNA vector. For the FLAG tagged UCH-L3, the 5′ primer is L3HindIII SEQ ID NO: 5 (CTAAAGCTTATGGACTAC […]), the 3′ primer is L3XhoISAA SEQ ID NO: 6 ([…]). […] After 24 hours of incubation, the cells were lysed with Tris buffer (50 mM Tris, 2% SDS, 0.1% NP-40), and subjected to SDS-PAGE, followed by quantitative Western blotting.
The C220S mutation eliminated the ability of S118 to promote α-synuclein accumulation in COS-7 cells but had no effect on the S18Y polymorph (FIG. 2, panel C): the relative amount of 16 kDa α-synuclein was quantified and normalized against the amount of actin in transfected COS-7 cells with the presence of UCH-L1 variants. […]

UCH-L1 in SH-SY5Y cells = assay: UCH-L1 membrane association and level in SH-SY5Y cells (2D electrophoresis, Western blot); format: cell-based
Description: Membrane fractionation: Cells were harvested by scraping and washed with PBS. Cell pellet was suspended in lysis buffer (50 mM Tris-HCl, 1 mM EDTA) supplemented with protease inhibitor cocktail (Sigma) and homogenized by passing through 26G needles 10 times. Suspension was clarified by spinning at 600 g for 5 minutes. Clarified suspension was ultracentrifuged at 100,000 g for 2 hours and separated into membrane and cytosol. Membrane fraction was washed with washing buffer (50 mM Tris-HCl, 1 mM EDTA 1 M NaCl), and pelleted each time with bench-top centrifuge.
2D electrophoresis: For the isolation of total cellular protein, cultured SH-SY5Y cells maintained as described above were rinsed with ice-cold PBS. Cells were lysed in 1 ml dSDS buffer (50 mM Tris-HCl, pH 8.0 0.1% SDS) supplemented with protease inhibitor cocktail. Lysates were boiled for 3 min, and were treated with Dnase and Rnase as described. Lysates were precipitated with ice-cold acetone for at least 2 hours, and pellets were resuspended in 2D sample buffer (8M urea, 0.5% CHAPS, 0.2% DTT, 0.5% IPG buffer, 0.002% bromophenol blue). 2D electrophoresis was carried out according to manufacture's protocol (Amersham Life Science). 7 cm pH 4-7 strips were used. For SH-SY5Y membrane fraction, culture SH-SY5Y cells were rinsed with cold PBS and harvested with lysis buffer (50 mM Tris-HCl, pH 8.0, 1 mM ZnAc2, 250 mM sucrose). Lysate was passed through 25G needles for several times and spun at 1000 g for 5 min. Supernatant was centrifuged at 200,000 g for 2 hours. Pellet was extensively washed with lysis buffer and extracted with cold acetone. Pellet was resuspended in 2D sample buffer.
This species was presumably the fully processed species: farnesylated, truncated and C-terminally methylated.

[2] = tested on: SH-SY5Y cells overexpressing α-synuclein; assay: α-synuclein toxicity in SH-SY5Y cells infected with α-synuclein-expressing adenovirus (Trypan blue, MTT); format: cell-based
Description: Viral Infection: Viral infection and MTT assay in SH-SY5Y cells: The viruses were amplified and purified according to the published procedure. SH-SY5Y cells were grown on 100 mm petri-dishes and induced with 100 nM retinoic acid for 3-5 days before the virus infection with M.I.O at 75. Viruses were diluted with DPBS to desired M.I.O. After four hours of incubation, 10 ml growth medium was added. On the second day, cells were splitted into 96-well plates and treated with compounds for next 48 hours. The growth medium in each well was replaced with growth medium with 5 ug/ml MTT. Medium was removed after three hours incubation, and 200 ul isopropyl (0.04N HCl) was added into each well. The signal was read at 570 nm.
Viable cell counting: At stated time points, SH-SY5Y cells were trypsinized with 100 ul trypsin-EDTA for 1 minute and neutralized with 400 ul growth medium. Cell suspension was made up by mixing 0.2 ml of cells in growth medium, 0.3 ml of HBSS and 0.5 ml of 0.4% Trypan Blue solution. Viable cell numbers were counted by standard cell counting chamber.
Since α-synuclein neurotoxicity is dose-dependent, it follows that accumulation of α-synuclein, caused by UCH-L1 farnesylation, should promote its toxicity. […] These cells express high endogenous levels of UCH-L1. […] The unit of y-axis is 10^5/ml. (F) Cell viability was assessed by the amount of metabolic activity using MTT assay. […]

[3] = tested on: primary dopaminergic cultures; assay: α-synuclein toxicity in primary dopaminergic cultures; format: cell-based
[4] = tested on: α-synuclein in SH-SY5Y cells; assay: α-synuclein accumulation in infected SH-SY5Y cells (Western blot); format: cell-based; details: SH-SY5Y cells infected with α-synuclein adenovirus, normalized to actin
Description: Western Blotting: Following transfer of SDS gels onto NC membrane, all membranes were blocked with 5% non-fat milk in TBST (50 mM Tris-HCl pH7.4, 150 mM NaCl, 0.1% Tween 20), and incubated with primary antibody overnight with 1% BSA in TBST, washed three times with TBST, and incubated with horseradish peroxidase-conjugated secondary antibody for 1 hour (Promega). Bound antibodies were detected using enhanced chemiluminascence (NEM).
Since α-synuclein neurotoxicity is dose-dependent, it follows that accumulation of α-synuclein, caused by UCH-L1 farnesylation, should promote its toxicity. […] These cells express high endogenous levels of UCH-L1. […] The unit of y-axis is 10^5/ml. (F) Cell viability was assessed by the amount of metabolic activity using MTT assay. […] The effect of FTI-277 on the α-synuclein accumulation in the SH-SY5Y infected with α-synuclein-expressing adenovirus were analyzed by Western blotting (B) and the amount of α-synuclein (C) was quantified using NIH Image program and normalized against the amount of actin.

α-synuclein inclusions = assay: Inclusion histology in α-synuclein transgenic mice (α-synuclein and ubiquitin immunostaining, Campbell-Switzer); format: in vivo
Description: (§1) Farnesyl transferase inhibitors Zarnestra and OSI-754 were administered to mice of the α-synuclein transgenic line described in Masliah et al. (Masliah et al. “Dopaminergic loss and inclusion body formation in alpha-synuclein mice: implications for neurodegenerative disorders” Science 287(5456): 1265-69, 2000; incorporated herein by reference). Animals from this line have α-synuclein neuronal inclusions in the cortex, hippocampus, and the olfactory bulb (Masliah et al. “Dopaminergic loss and inclusion body formation in alpha-synuclein mice: implications for neurodegenerative disorders” Science 287(5456): 1265-69, 2000; incorporated herein by reference). Transgenic mice were orally administered either FTI in 20% cyclodextrin solution or the same volume of vehicle alone twice a day for 30 or 90 days. In some cases, non-transgenic mice also received vehicle twice a day for 30 to 90 days. At the end of treatment, mice were sacrificed, and the brains removed and hemisected. One hemisphere of each was fixed in 4% paraformaldehyde/PBS (pH 7.4), cryoperserved, then sectioned for histology. The other hemisphere was subdivided into four brain regions, including the cortex and hippocampus, that were homogenized and processed into cytoplasmic and membrane fractions.
Formation of α-synuclein inclusions in the cortex and hippocampus was probed by immunostaining with an antibody for human α-synuclein. Cells positive for human α-synuclein were quantified. […] These regions were also analyzed for ubiquitin-immunoreactive inclusions and by the Campbell Switzer method of silver staining. Ubiquitin is known to be a constituent of Lewy bodies and in the α-synculein inclusions found in the transgenic mouse line used in the study (Masliah et al. “Dopaminergic loss and inclusion body formation in alpha-synuclein mice: implications for neurodegenerative disorders” Science 287(5456): 1265-69, 2000; incorporated herein by reference). […] Campbell-Switzer staining is a general marker of Lewy Body type inclusions (Uchihara et al. “Silver stainings distinguish Lewy bodies and glial cytoplasmic inclusions: comparison between Gallyas-Braak and Campbell-Switzer methods” Acta Neuropathol (Berl) 110(3):255-60, 2005; incorporated herein by reference).
Formation of α-synuclein inclusions in the cortex and hippocampus was probed by immunostaining with an antibody for human α-synuclein. Cells positive for human α-synuclein were quantified.

farnesylated UCH-L1 = assay: Farnesylated UCH-L1 in cortex membrane fraction of α-synuclein transgenic mice (quantitative Western blot); format: in vivo; details: 35 mg/kg twice a day, 30 days
Description: Farnesyl transferase inhibitors Zarnestra and OSI-754 were administered to mice of the α-synuclein transgenic line described in Masliah et al. (Masliah et al. “Dopaminergic loss and inclusion body formation in alpha-synuclein mice: implications for neurodegenerative disorders” Science 287(5456): 1265-69, 2000; incorporated herein by reference). Animals from this line have α-synuclein neuronal inclusions in the cortex, hippocampus, and the olfactory bulb (Masliah et al. “Dopaminergic loss and inclusion body formation in alpha-synuclein mice: implications for neurodegenerative disorders” Science 287(5456): 1265-69, 2000; incorporated herein by reference). […]
Total α-synuclein levels were analyzed by a sandwich ELISA assay similar to one previously described (El-Agnaf et al. “Detection of oligomeric forms of alpha-synuclein protein in human plasma as a potential biomarker for Parkinson's disease” FASEB J. 20(3):419-25, 2006; incorporated herein by reference). […] Transgenic mice that received Zarnestra had lower α-synuclein protein levels than vehicle-treated transgenic mice and nearly the same as that detected in the non-transgenic group in both the cytoplasmic (FIG. 10) and membrane fractions (FIG. 11), which represent soluble and insoluble α-synuclein, respectively. […] The amount of UCH-L1 was determined by quantitative Western Blot. […]

α-synuclein = α-synuclein sandwich ELISA in brain fractions of α-synuclein transgenic mice; format: in vivo
Description: as §1
Total α-synuclein levels were analyzed by a sandwich ELISA assay similar to one previously described (El-Agnaf et al. “Detection of oligomeric forms of alpha-synuclein protein in human plasma as a potential biomarker for Parkinson's disease” FASEB J. 20(3):419-25, 2006; incorporated herein by reference). In the cortex of vehicle treated animals, α-synuclein protein levels in the α-synuclein transgenic line are greater than in non-transgenic mice in both cytoplasmic (FIG. 10) and membrane fractions (FIG. 11). Transgenic mice that received Zarnestra had lower α-synuclein protein levels than vehicle-treated transgenic mice and nearly the same as that detected in the non-transgenic group in both the cytoplasmic (FIG. 10) and membrane fractions (FIG. 11), which represent soluble and insoluble α-synuclein, respectively. Farnesylated UCH-L1 in the cortex is contained in the membrane fraction. The amount of UCH-L1 was determined by quantitative Western Blot.

[5] = α-synuclein transgenic mice, summary, dose not given

Structure (SMILES): COC(=O)[C@H](CCSC)NC(=O)c1ccc(NC[C@@H](N)CS)cc1-c1ccccc1 [FTI-277]
- α-synuclein levels ([1]; COS-7 cells): lowers α-synuclein levels
- total amount of UCH-L1 (UCH-L1 in SH-SY5Y cells): reduced the total amount of UCH-L1
- amount of cytosolic UCH-L1 (UCH-L1 in SH-SY5Y cells; compared to DMSO): without affecting
- amount of membrane bound UCH-L1 (UCH-L1 in SH-SY5Y cells; compared to DMSO): significant decrease; also recorded: reducing the amount of membrane-associated protein
- rate of turnover of UCH-L1 (UCH-L1 in SH-SY5Y cells; pulse-chase): increased its rate of turnover
- loss of cells (α-synuclein toxicity) [2]: inhibits synuclein toxicity; also recorded: significantly decreased loss of cells
- α-synuclein toxicity [3]: inhibit α-synuclein toxicity
- amount of α-synuclein [4]: reduced the amount of α-synuclein

Structure (SMILES): Cn1cncc1C(N)(c1ccc(Cl)cc1)c1ccc2c(c1)c(-c1cccc(Cl)c1)cc(=O)n2C (centres unmarked) [Zarnestra]
- Campbell-Switzer stained inclusions versus vehicle (α-synuclein inclusions; 35 mg/kg twice a day, 30 days): fewer inclusions
- ubiquitin-immunoreactive inclusions versus vehicle (α-synuclein inclusions; 35 mg/kg twice a day, 30 days): fewer ubiquitin-immunoreactive inclusions
- inclusions versus vehicle (α-synuclein inclusions; 35 mg/kg twice a day, 30 days, oral): fewer inclusions
- α-synuclein-positive cells per mm^2 versus vehicle (α-synuclein inclusions; cortex and hippocampus, 35 mg/kg twice a day, 30 days): significantly fewer
- inclusions versus vehicle (α-synuclein inclusions; [5]): fewer inclusions
- amount of farnesylated UCH-L1 (farnesylated UCH-L1): decreased the amount of farnesylated UCH-L1
- levels of α-synuclein protein (ELISA) (α-synuclein; cortex, cytoplasmic and membrane fractions, 35 mg/kg twice a day, 30 days): decreased levels of α-synuclein protein
- levels of α-synuclein in the cortex (α-synuclein; [5]): decrease levels of α-synuclein in the cortex

Structure (SMILES): CC(=O)N[C@@H](CSC(=O)[C@]1([C@@H](O)C(C)C)NC(=O)[C@H](C)[C@@H]1O)C(=O)O [lactacystin]
- accumulation of α-synuclein ([1]; transfected COS-7 cells, 35 μM lactacystin, 24 hours): 100%
